According to article PMC5377415, “Thermo‐kinetic analysis space expansion for cyclophilin‐ligand interactions – identification of a new nonpeptide inhibitor using Biacore™ T200” (FEBS Open Bio, 2017):

Target: T1, His-tagged human cyclophilin-A (His-CypA) (Homo sapiens, UniProt P62937)
T1 construct: gene PPIA; full length M1-E165, codon-optimised, E. coli C41
Test: SPR (Biacore T200), […] Langmuir fit, captured and stabilised His-CypA
Format: binding

T1 sequence (P62937 whole entry): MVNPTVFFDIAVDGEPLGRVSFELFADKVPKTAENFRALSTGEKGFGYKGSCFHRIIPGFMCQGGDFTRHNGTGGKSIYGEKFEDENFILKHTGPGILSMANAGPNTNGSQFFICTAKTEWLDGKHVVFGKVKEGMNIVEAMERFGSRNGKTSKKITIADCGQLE

In the case of `Nc1cccnc1N` [2,3-diaminopyridine], the Kd is reported as 248 ± 60 µM.
